Experimental data taken from US8293769B2, “CSF-1R inhibitors, compositions, and methods of use” (Novartis AG, priority 2008, dated 2012).

Tests used:
[1] = biological target: T1, cytoplasmic domain of the human CSF-1R (Homo sapiens, UniProt P07333); experiment: In vitro kinase assay for CSF-1R (AlphaScreen); assay type: biochemical; conditions: tested at about 1 μM; read-out: CSF1RK 1 percent inhibition
T1 construct: Recombinant protein corresponding to the cytoplasmic domain of the human CSF-1R; purchased Invitrogen Corporation, Carlsbad, Calif; PV3249
T1 sequence (P07333 539-972 limits assumed): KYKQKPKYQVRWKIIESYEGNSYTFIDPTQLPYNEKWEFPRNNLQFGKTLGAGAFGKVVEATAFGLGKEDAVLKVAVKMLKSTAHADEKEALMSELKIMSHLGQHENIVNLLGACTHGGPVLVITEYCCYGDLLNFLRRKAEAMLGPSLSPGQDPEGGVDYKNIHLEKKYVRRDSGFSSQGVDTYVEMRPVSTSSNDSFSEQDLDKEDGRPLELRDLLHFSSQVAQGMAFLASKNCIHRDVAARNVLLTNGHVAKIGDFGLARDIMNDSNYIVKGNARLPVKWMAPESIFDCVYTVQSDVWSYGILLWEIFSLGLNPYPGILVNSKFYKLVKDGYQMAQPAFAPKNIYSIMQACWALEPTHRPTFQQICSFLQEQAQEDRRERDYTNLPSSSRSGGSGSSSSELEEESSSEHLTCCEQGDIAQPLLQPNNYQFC
Outline: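 Recombinant CSF-1R cytoplasmic domain (4 nM) phosphorylated biotinylated peptide (0.05 μM) at 1.0 μM ATP in HEPES with Mg2+/Mn2+, 2 h at room temperature, compounds from 25 μM in 3-fold steps. AlphaScreen anti-phosphotyrosine PT66 detection; IC50 by non-linear regression.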

cKIT = biological target: T2, cKIT (Homo sapiens, UniProt P10721); experiment: cKIT kinase in vitro biochemical assay (alphascreen); conditions: tested at about 1 μM; read-out: CKIT percent inhibition
T2 construct: The kinase domain of cKIT was assayed in 50 mM Hepes; purchased Upstate 14-559

PDGFRb = biological target: T3, PDGFRb (Homo sapiens, UniProt P09619); experiment: PDGFRb kinase in vitro biochemical assay (alphascreen); conditions: tested at about 1 μM; read-out: PDGF RK BETA percent inhibition
T3 construct: The kinase domain of PDGFRβ was assayed in 50 mM Hepes; purchased Invitrogen P3082

[2] = tested on: MNFS60 (murine AML cells); experiment: Cell viability assay in MCSF dependent MNFS60 cells (Cell Titer Glo); assay type: cell-based; conditions: Mus musculus; tested at about 1 μM; MCSF 10 ng/mL, 72 hrs; read-out: CPEC50 MNFS60MCSF percent inhibition
Protocol: Cell viability was assessed by Cell Titer Glo, Promega. MNFS60 (murine AML cells) were seeded in TC treated 96-well plates at a density of 5,000 cells per well in RPMI-1640, 10% FBS, and 1% Penicillin Streptomycin prior to addition of compound. Test compounds were serially diluted (3 fold) in DMSO to 500× the final concentration. For each concentration of test compound, 2 μl (500×) aliquots of compound or 100% DMSO (control) were diluted in 500 μl of culture medium that contained 2× final concentration of growth factor MCSF for 2× concentration and then diluted 1× on the cells. Final concentration of MCSF is 10 ng/mL. Cells were incubated for 72 hrs at 37° C., 5% CO2. After the incubation 100 μl Cell Titer Glo is added to each well to determine viable cells. The assay was performed according to the manufacturer's instruction (Promega Corporation, Madison, Wis. USA). Each experimental condition was performed in triplicate. Raw data was imported in Abase and EC50s calculated with XL-fit data analysis software: Relative light units of wells that contained cells without MCSF in the media and as a consequence didn't grow were defined as 100% inhibited.

[3] = biological target: T4, full-length human CSF-1R receptor (Homo sapiens, UniProt P07333); experiment: In vitro inhibition of CSF-1R receptor tyrosine phosphorylation in transfected HEK293H cells; assay type: cell-based; conditions: HEK293-H, tested at about 1 μM, 50 ng/mL MCSF, read-out: PCSF1R percent inhibition
T4 construct: transfected with the full-length human CSF-1R receptor cloned in house; expressed in transfected cells; host or cells: HEK293H (Invitrogen Cat. #11631017)
Protocol: To test the inhibition of CSF-1R receptor tyrosine phosphorylation, HEK293H purchased from Invitrogen Cat. #11631017 cells transfected with the full-length human CSF-1R receptor cloned in house into mammalian episomal transfection vector were incubated for 1 h with serial dilutions of compounds starting at 10 μM with 3 fold dilutions and then stimulated for 8 min with 50 ng/mL MCSF. After the supernatant was removed, the cells were lysed on ice with lysis buffer (150 mM NaCl, 20 mM Tris, pH 7.5, 1 mM EDTA, 1 mM EGTA, 1% Triton X-100 and NaF, protease and phosphatase inhibitors) and then shaken for 15-20 min at 4° C. The lysate was then transferred to total CSF-1R antibody coated 96-well plates that had already been blocked with 3% Blocker A from Mesoscale discovery (MSD) for 2 hours and washed afterwards. Lysates were incubated overnight at 4° C. and the plates were then washed 4× with MSD Tris Wash Buffer. The SULFO-TAG anti-pTyr antibody from MSD was diluted to 20 nM final in 1% Blocker A (MSD) solution and added to the washed plates and incubated for 1.5-2 h before addition of read buffer (MSD). The plates were read on the Sector 6000 instrument (MSD). Raw data was imported in Abase and EC50s calculated with XL-fit data analysis software.

T4 sequence (P07333 20-972): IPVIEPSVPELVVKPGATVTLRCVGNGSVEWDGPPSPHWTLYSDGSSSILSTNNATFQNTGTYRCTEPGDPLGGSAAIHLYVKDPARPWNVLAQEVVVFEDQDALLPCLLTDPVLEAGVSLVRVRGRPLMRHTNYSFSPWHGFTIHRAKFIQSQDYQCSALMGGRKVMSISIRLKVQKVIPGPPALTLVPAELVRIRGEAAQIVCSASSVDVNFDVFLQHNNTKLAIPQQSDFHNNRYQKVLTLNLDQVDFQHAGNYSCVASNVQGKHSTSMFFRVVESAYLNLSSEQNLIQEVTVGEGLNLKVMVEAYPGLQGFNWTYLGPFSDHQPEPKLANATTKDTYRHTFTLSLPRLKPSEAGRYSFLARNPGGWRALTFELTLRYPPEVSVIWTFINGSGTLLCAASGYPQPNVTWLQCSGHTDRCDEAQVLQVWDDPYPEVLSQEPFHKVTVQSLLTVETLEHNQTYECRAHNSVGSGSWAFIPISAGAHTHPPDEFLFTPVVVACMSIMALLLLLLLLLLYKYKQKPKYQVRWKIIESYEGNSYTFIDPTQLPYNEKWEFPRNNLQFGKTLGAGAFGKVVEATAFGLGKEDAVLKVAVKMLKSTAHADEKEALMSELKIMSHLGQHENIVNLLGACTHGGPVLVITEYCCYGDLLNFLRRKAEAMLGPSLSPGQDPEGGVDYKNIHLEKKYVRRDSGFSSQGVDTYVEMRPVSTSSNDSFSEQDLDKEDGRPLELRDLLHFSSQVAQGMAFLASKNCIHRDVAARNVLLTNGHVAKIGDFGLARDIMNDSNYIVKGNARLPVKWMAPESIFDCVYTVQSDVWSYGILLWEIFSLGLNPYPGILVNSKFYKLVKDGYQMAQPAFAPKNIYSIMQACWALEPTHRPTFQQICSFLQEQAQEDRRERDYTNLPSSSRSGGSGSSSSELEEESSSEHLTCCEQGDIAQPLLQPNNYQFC
T2 sequence (P10721 589-937 limits assumed): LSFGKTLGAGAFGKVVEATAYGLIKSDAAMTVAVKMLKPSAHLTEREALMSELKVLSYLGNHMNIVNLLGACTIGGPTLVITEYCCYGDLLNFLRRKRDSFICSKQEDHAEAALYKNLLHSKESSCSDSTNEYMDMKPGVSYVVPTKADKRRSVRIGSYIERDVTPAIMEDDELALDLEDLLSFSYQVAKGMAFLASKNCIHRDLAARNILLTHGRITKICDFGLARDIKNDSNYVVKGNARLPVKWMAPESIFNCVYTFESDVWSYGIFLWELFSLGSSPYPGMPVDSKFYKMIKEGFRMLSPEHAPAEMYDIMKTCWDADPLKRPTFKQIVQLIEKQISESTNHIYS
T3 sequence (P09619 600-962 limits assumed): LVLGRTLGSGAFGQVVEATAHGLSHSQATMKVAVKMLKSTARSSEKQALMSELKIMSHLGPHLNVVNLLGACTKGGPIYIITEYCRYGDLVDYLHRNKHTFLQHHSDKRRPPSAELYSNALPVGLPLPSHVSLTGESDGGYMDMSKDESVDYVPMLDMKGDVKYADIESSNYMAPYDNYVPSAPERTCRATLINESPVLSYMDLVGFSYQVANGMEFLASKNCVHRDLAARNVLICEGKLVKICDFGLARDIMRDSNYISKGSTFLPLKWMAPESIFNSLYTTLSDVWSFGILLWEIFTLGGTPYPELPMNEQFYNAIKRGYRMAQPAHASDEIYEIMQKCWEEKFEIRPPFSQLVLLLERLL

| SMILES | inhibition at 1 µM [1] [%] | inhibition at 1 µM (cKIT) [%] | inhibition at 1 µM (PDGFRb) [%] | inhibition at 1 µM [3] [%] | inhibition at 1 µM [2] [%] |
| --- | --- | --- | --- | --- | --- |
| CN1CCN(c2ccc(-c3cc(Oc4ccc5nc(N[C@@H]6CCCC[C@H]6O)sc5c4)cnc3-c3ccc(N4CCN(C)CC4)nc3)cn2)CC1 [Compound 107, (1R,2R)-2-(6-(5,6-bis(6-(4-methylpiperazin-1-yl)-pyridin-3-yl)pyridin-3-yloxy)benzo[d]thiazol-2-ylamino)cyclohexanol] | 100 | 16 | 26 | 86 | 100 |
| Cn1cc(-c2cncc(Oc3ccc4nc(N[C@@H]5CCCC[C@H]5O)sc4c3)n2)cn1 [Compound 93, (1R,2R)-2-(6-(6-(1-methyl-1H-pyrazol-4-yl)pyrazin-2-yloxy)benzo[d]thiazol-2-ylamino)cyclohexanol] | 100 | 18 | 22 | 95 | 82 |
| Cn1cc(-c2nccc(Oc3ccc4nc(NCC5CCCCC5)sc4c3)n2)cn1 [Compound 21, N-(cyclohexylmethyl)-6-(2-(1-methyl-1H-pyrazol-4-yl)pyrimidin-4-yloxy) benzo[d]thiazol-2-amine] | 100 | 100 | 92 |  | 100 |
| Cn1cc(-c2cc(Oc3ccc4nc(NCC5CCCCC5)sc4c3)ncn2)cn1 [Compound 20, N-(cyclohexylmethyl)-6-(6-(1-methyl-1H-pyrazol-4-yl)pyrimidin-4-yloxy)benzo[d]thiazol-2-amine] | 100 | 99 | 82 |  | 96 |
| C[C@H](Nc1nc2ccc(Oc3ccnc(-c4cnn(C)c4)n3)cc2s1)C1CCCCC1 [Compound 30, (S)-N-(1-cyclohexylethyl)-6-(2-(1-methyl-1H-pyrazol-4-yl)pyrimidin-4-yloxy)benzo[d] thiazol-2-amine] | 100 | 24 | 21 |  | 100 |
| C[C@H](Nc1nc2ccc(Oc3ccc(NO)nc3)cc2s1)C1CCCCC1 [Compound 101, (S)—N-(1-cyclohexylethyl)-6-(6-(hydroxyamino)pyridin-3-yloxy)benzo[d]thiazol-2-amine] | 100 | 74 | 31 |  | 58 |
| C[C@H](Nc1nc2ccc(Oc3ccnc(-c4ccnn4C)n3)cc2s1)C1CCCCC1 [Compound 34, (S)-N-(1-cyclohexylethyl)-6-(2-(1-methyl-1H-pyrazol-5-yl)pyrimidin-4-yloxy)benzo[d]thiazol-2-amine] | 100 | 21 | 6 |  | 19 |
| c1cc(-n2cncn2)cc(Oc2ccc3nc(NCC4CCCCC4)sc3c2)n1 [Compound 24, 6-(4-(1H-1,2,4-triazol-1-yl)pyridin-2-yloxy)-N-(cyclohexylmethyl)benzo[d]thiazol-2-amine] | 44 | 7 | 9 |  | 0 |
| Cn1cc(-c2cc(Oc3ccc4nc(N[C@@H]5CCCC[C@H]5O)sc4c3)ncn2)cn1 [Compound 22, (1R,2R)-2-(6-(6-(1-methyl-1H-pyrazol-4-yl)pyrimidin-4-yloxy)benzo[d]thiazol-2-ylamino) cyclohexanol] | 100 | 29 | 11 |  | 100 |

Continued, in another order:

| inhibition at 1 µM [1] [%] | inhibition at 1 µM (cKIT) [%] | inhibition at 1 µM (PDGFRb) [%] | inhibition at 1 µM [3] [%] | SMILES | inhibition at 1 µM [2] [%] |
| --- | --- | --- | --- | --- | --- |
| 100 | 27 | 23 | 93 | O[C@@H]1CCCC[C@H]1Nc1nc2ccc(Oc3cncc(-c4cn[nH]c4)n3)cc2s1 [Compound 92, (1R,2R)-2-(6-(6-(1H-pyrazol-4-yl)pyrazin-2-yloxy)benzo [d]thiazol-2-ylamino) cyclohexanol] | 70 |
| 100 | 52 | 3 | 95 | O[C@@H]1CCCC[C@H]1Nc1nc2ccc(Oc3cncc(-c4ccncc4)c3)cc2s1 [Compound 60, (1R,2R)-2-(6-(3,4′-bipyridin-5-yloxy)benzo[d]thiazol-2-ylamino)cyclohexanol] | 97 |
| 100 | 45 | 0 | 96 | O[C@@H]1CCCC[C@H]1Nc1nc2ccc(Oc3cncc(-c4cccnc4)c3)cc2s1 [Compound 57, (1R,2R)-2-(6-(3,3′-bipyridin-5-yloxy)benzo[d]thiazol-2-ylamino)cyclohexanol] | 96 |
| 100 | 60 | 5 | 93 | O[C@@H]1CCCC[C@H]1Nc1nc2ccc(Oc3cncc(Br)c3)cc2s1 [Compound 45, (1R,2R)-2-(6-(5-bromopyridin-3-yloxy)benzo[d]thiazol-2-ylamino)cyclohexanol] | 96 |
| 100 | 66 | 34 |  | Clc1ccncc1Oc1ccc2nc(NCC3CCCCC3)sc2c1 [Compound 1, 6-(4-chloropyridin-3-yloxy)-N-(cyclohexylmethyl)benzo[d]thiazol-2-amine] | 22 |
| 100 | 22 | 11 |  | O[C@@H]1CCCC[C@H]1Nc1nc2ccc(Oc3ncnc4ccccc34)cc2s1 [Compound 18, (1R,2R)-2-(6-(quinazolin-4-yloxy)benzo[d]thiazol-2-ylamino)cyclohexanol] | 38 |
| 100 | 10 | 14 |  | O[C@@H]1CCCC[C@H]1Nc1nc2ccc(Oc3cccnc3)cc2s1 [Compound 110, (1R,2R)-2-(6-(pyridin-3-yloxy)benzo[d]thiazol-2-ylamino)cyclohexanol] | 54 |
| 100 | 24 | 20 |  | Cn1nccc1-c1nccc(Oc2ccc3nc(N[C@@H]4CCCC[C@H]4O)sc3c2)n1 [Compound 26, (1R,2R)-2-(6-(2-(1-methyl-1H-pyrazol-5-yl)pyrimidin-4-yloxy)benzo[d]thiazol-2-ylamino) cyclohexanol] | 19 |
| 100 | 25 | 11 |  | O[C@@H]1CCCC[C@H]1Nc1nc2ccc(Oc3cnccc3Cl)cc2s1 [Compound 7, (1R,2R)-2-(6-(4-chloropyridin-3-yloxy)benzo[d]thiazol-2-ylamino) cyclohexanol] | 42 |
